What was measured:
[1] = tested on: Madin Darby canine kidney (MDCK) cells; experiment: Electrical resistance across MDCK cell monolayers; type: cell-based; conditions: 24 hours; for mean electrical resistance across MDCK cell monolayers: 0.5 mg/ml peptide, relative to the control (medium alone), FIG. 9; for formation of tight junctions in epithelial cells: conclusion from MDCK electrical resistance, 0.5 mg/ml
Procedure: Yet another assay evaluates the effect of an occludin modulating agent on the electrical resistance across a monolayer of cells. For example, Madin Darby canine kidney (MDCK) cells can be exposed to the modulating agent dissolved in medium (e.g., at a final concentration of 0.5 mg/ml for a period of 24 hours). The effect on electrical resistance can be measured using standard techniques. This assay evaluates the effect of a modulating agent on tight junction formation in epithelial cells. In general, the presence of 500 μg/mL modulating agent should result in a statistically significant increase or decrease in electrical resistance after 24 hours.
Madin Darby canine kidney (MDCK) cells were plated in Millicells (Millipore, Bedford, Mass.), at a density of 300,000 cells per Millicell, and cultured in Dulbecco's Modified Eagle Medium (DMEM; Sigma, St. Louis, Mo.) containing 5% fetal calf serum (Sigma, St. Louis, Mo.). Monolayers were exposed to the modulating agent dissolved in medium at a final concentration of 0.5 mg/ml for a period of 24 hours. The electrical resistance was measured using the EVOM device (World Precision Instruments, Sarasota, Fla.). At the time of measurement, fresh medium, with or without the modulating agent, may be added to the Millicells.

[2] = tested on: Human aortic endothelial cells (HAEC); experiment: Endothelial cell adhesion assay: occludin and VE-cadherin immunolocalization in HAEC monolayers; type: cell-based; conditions: 1 hour
Source text: The effect of a modulating agent on endothelial cell adhesion may generally be evaluated using immunolocalization techniques. Human aortic endothelial cells (HAEC) may be cultured on fibronectin-coated coverslips (fibronectin may be obtained from Sigma, St. Louis, Mo.) according to the procedures of Jaffe et al., J. Clin. Invest. 52:2745-2756, 1973. Briefly, human endothelial cells may be maintained in EGM (endothelial cell growth medium; Clonetics, San Diego, Calif.) and used for experiments at passage 4. Confluent cultures of HAEC may be exposed to either a candidate modulating agent (final concentration 100 μg/ml EGM), or EGM alone for 1 hour. The cells are then be fixed for 30 minutes at 4° C. in 95% ethanol, followed by fixation in acetone for 1 minute at 4° C. (Furuse et al., J. Cell Biol. 123:1777-1788, 1993). After fixation, the cells may be probed with either mouse anti-VE-cadherin antibodies (Hemeris, Sassenage, France; diluted 1:250 in 0.1% dried skim milk powder dissolved in PBS), or rabbit anti-occludin antibodies (Zymed, South San Francisco, Calif.; diluted 1:300 in 0.1% dried skim milk powder dissolved in PBS) for 1 hour at 37° C. The cells may then be washed with 0.1% dried skim milk powder dissolved in PBS (three washes, 5 minutes/wash), and probed with secondary antibodies (donkey anti-mouse Cy3, or donkey anti-rabbit Cy5 diluted 1:250 in 0.1% dried skim milk powder dissolved in PBS; Jackson Immunoresearch Laboratories Inc., Westgrove, Pa.) for 1 hour at 37° C. The cells may then be washed again with in 0.1% dried skim milk powder dissolved in PBS and mounted in a solution composed of 50% glycerol and 50% PBS to which phenylenediamine (Sigma, St. Louis, Mo.) has been added to a final concentration of 1 mg/ml. The sample may then be analyzed using a Bio-Rad MRC 1000 confocal microscope with Laser Sharp software version 2.1T (Bio-Rad, Hercules, Calif.). In general, 0.1 mg/ml of modulating agent results in the appearance of intercellular gaps within the monolayer cultures and a decrease of at least 50% in the surface expression of occludin and VE-cadherin, as compared to monolayer cultures that were not exposed to the modulating agent.
Human aortic endothelial cells (HAEC) were cultured on fibronectin (Sigma, St. Louis, Mo.) according to the procedures of Jaffe et al., J. Clin. Invest. 52:2745-2756, 1973. Cells were maintained in EGM (endothelial cell growth medium; Clonetics, San Diego, Calif.) and used for experiments at passage 4.
HAEC were cultured on fibronectin-coated coverslips. Confluent cultures of HAEC were exposed to linear peptides (final concentration 100 μg/ml EGM), or EGM alone for 1 hour. […] The samples were analyzed using a Bio-Rad MRC 1000 confocal microscope with Laser Sharp software version 2.1T (Bio-Rad, Hercules, Calif.). […]

Adult rats = experiment: Miles assay for vascular permeability (Evans blue); type: in vivo; conditions: rat
Procedure: The ability of an agent to modulate cell adhesion may generally be evaluated in vivo by assessing the effect on vascular permeability utilizing the Miles assay (McClure et al., J. Pharmacological & Toxicological Methods 32:49-52, 1994). Briefly, a candidate modulating agent may be dissolved in phosphate buffered saline (PBS) at a concentration of 100 μg/ml. Adult rats may be given 100 μl subdermal injections of each peptide solution into their shaved backs, followed 15 minutes later by a single 250 μl injection of 1% Evans blue dissolved in PBS into their tail veins. The subdermal injection sites may be visually monitored for the appearance of blue dye. Once the dye appears (about 15 minutes after injection), each subdermal injection site may be excised, weighed, and placed in 1 ml dimethylformamide for 24 hours to extract the dye. The optical density of the dye extracts may then be determined at 620 nm. In general, the injection of 0.1 ml of modulating agent (at a concentration of 0.1 mg/ml) into the backs of rats causes an increase of dye accumulation at the injection sites of at least 50%, as compared to dye accumulation at sites into which PBS has been injected.
The ability of cyclic and linear peptides to increase vascular permeability was assessed utilizing the Miles assay (McClure et al., J. Pharmacological & Toxicological Meth. 32:49-521994). The peptides were dissolved in phosphate buffered saline (PBS) at a concentration of 100 μg/ml. Adult rats were given 100 μl subdermal injections of each peptide solution into their shaved backs, followed 15 minutes later by a single 250 μl injection of 1% Evans blue dissolved in PBS into their tail veins. The subdermal injection sites were visually monitored for the appearance of blue dye. Once the dye appeared (15 minutes after injection), each subdermal injection site was excised, weighed, and placed in 1 ml dimethylformamide for 24 hours to extract the dye. The optical density of the dye extracts was determined at 620 nm. […]

[3] = 100 μg/ml peptide, compared to untreated cells

## H-QYLYHYCVVD-NH2 [Peptide 2]
[1]
  mean electrical resistance across MDCK cell monolayers: reduce the electrical resistance

## H-QYLYHYCVVD-OH [Peptide 3]
[2]; 100 μg/ml peptide in EGM, vs untreated, FIG. 4B
  adhesion between endothelial cells (retraction of cells from one another): adhesion is decreased
[2]; 100 μg/ml peptide
  formation of cobblestone-like monolayers: do not form cobblestone-like monolayers
[2]; [3]
  surface expression of VE-cadherin: greatly reduced
  surface expression of occludin: greatly reduced
[1]
  mean electrical resistance across MDCK cell monolayers: increased the electrical resistance
  formation of tight junctions in epithelial cells: stimulate the formation of tight junctions in epithelial cells
[1]; listed as H-QYLYHYCVVD-COOH
  formation of tight junctions in epithelial cells: stimulating the formation of tight junctions in epithelial cells
Adult rats; 100 μg/ml peptide subdermal, OD at 620 nm, compared with PBS and the N-acetyl/C-amide peptides, FIG. 6, FIG. 8
  optical densities of dimethylformamide dye extracts from excised injection sites: more dye was extracted
Adult rats; 100 μl subdermal injection of 100 μg/ml peptide in PBS, Evans blue i.v. 15 min later, compared with PBS, acetyl-QYLYHYCVVD-NH2 and H-QYLYHYCVVD-NH2 sites, FIG. 5
  accumulation of Evans blue at the injection sites (visual): more blue dye has accumulated

## acetyl-CLYHYC-NH2 (Ac-CLYHYC-NH2; also: cyclic, kind not given here) [Peptide 4]
[1]
  mean electrical resistance across MDCK cell monolayers: increased the electrical resistance
  formation of tight junctions in epithelial cells: stimulate the formation of tight junctions in epithelial cells
[1]; listed as N-Ac-CLYHYC-NH2
  formation of tight junctions in epithelial cells: stimulating the formation of tight junctions in epithelial cells

Reference: patent publication US6797807B1, “Compounds and methods for cancer therapy” (Adherex Technologies, Inc., priority 1997, dated 2004)
